Where two headings read alike, the source gives them in different places.
Assays:
[1] = biological target: PfCDPK1 (Plasmodium falciparum, UniProt P62344); assay: PfCDPK1 enzyme inhibition (Kinase-Glo ATP depletion); type: biochemical; conditions: for IC50: isolated recombinant enzyme
Experimental: [10] A high throughput screen of 35,422 compounds comprising a diverse set of small molecules from a variety of commercial suppliers and 8100 kinase-focused compounds (BioFocus) was performed using Kinase-Glo® (Promega) to measure ATP depletion resulting from the kinase reaction. Full length recombinant PfCDPK1 was incubated with MyoA-Tail domain Interacting Protein (MTIP) substrate and the amount of ATP remaining after 1 h was measured by luminescence using a Pherastar plate reader (BMG Labtech).

[2] = tested on: P. falciparum parasite; assay: In vitro P. falciparum parasite growth (FACS, hydroethidine); type: cell-based, Plasmodium falciparum; conditions: for inhibition at 1 µM / EC50: Plasmodium falciparum; for inhibition at 1 µM: at 1 μM inhibitor concentration
Experimental: [15] P. falciparum EC50 values were measured using an in vitro model of malaria parasite growth. Compounds were diluted into 2% DMSO and added to parasites 24 h post-invasion in a 96-well plate and incubated under static conditions. Cells were recovered 48 h later and processed for FACS analysis using hydroethidine to stain parasite DNA. Data was acquired using CellQuest Pro software on a FACSCalibur (Becton Dickinson). Growth inhibition was calculated using the following formula: % growth inhibition = (1 − [parasitaemia of culture/parasitaemia of control culture]) ×100.

[3] = Human liver microsome stability (HLM); type: in vitro ADME; conditions: % remaining at 30 min, human microsomes
[4] = biological target: 73-member human kinase panel; assay: Kinase selectivity against 73-member human kinase panel; type: biochemical; conditions: 1 μM inhibitor concentration; for Kinases hit in human kinase panel: 73-member panel
Experimental: [17] Kinase selectivity profiling was carried out at the National Centre for Protein Kinase Profiling in the MRC Protein Phosphorylation Unit at the University of Dundee.

[5] = Mouse liver microsome stability (MLM); type: in vitro ADME; conditions: % remaining at 30 min, mouse microsomes
[6] = Mouse pharmacokinetics; type: in vivo
[7] = tested on: P. berghei; assay: 4-Day Peters test in P. berghei mouse model; type: in vivo; conditions: oral once daily 50 mg/kg, 4 days, relative to vehicle
Experimental: In advance of in vivo testing, it was shown that the inhibitors retained potency against the isolated P. berghei CDPK1 enzyme.[16] Compounds were dosed with an oral, once daily 50 mg/kg regime over 4 days in the standard Peters test, and their in vitro ADME and in vivo efficacy data is shown in Table 6.

[8] = Measured log D; type: physicochemical
Description: Table 6 In vitro ADME and in vivo efficacy data for selected compounds | column: 17; 24; 27; 28

[9] = PAMPA permeability; type: in vitro ADME
[10] = in vitro parasite growth, 48 h, read-out: P. falciparum EC50

PfCDPK1, sequence (P62344 whole entry, the tested form may be a part): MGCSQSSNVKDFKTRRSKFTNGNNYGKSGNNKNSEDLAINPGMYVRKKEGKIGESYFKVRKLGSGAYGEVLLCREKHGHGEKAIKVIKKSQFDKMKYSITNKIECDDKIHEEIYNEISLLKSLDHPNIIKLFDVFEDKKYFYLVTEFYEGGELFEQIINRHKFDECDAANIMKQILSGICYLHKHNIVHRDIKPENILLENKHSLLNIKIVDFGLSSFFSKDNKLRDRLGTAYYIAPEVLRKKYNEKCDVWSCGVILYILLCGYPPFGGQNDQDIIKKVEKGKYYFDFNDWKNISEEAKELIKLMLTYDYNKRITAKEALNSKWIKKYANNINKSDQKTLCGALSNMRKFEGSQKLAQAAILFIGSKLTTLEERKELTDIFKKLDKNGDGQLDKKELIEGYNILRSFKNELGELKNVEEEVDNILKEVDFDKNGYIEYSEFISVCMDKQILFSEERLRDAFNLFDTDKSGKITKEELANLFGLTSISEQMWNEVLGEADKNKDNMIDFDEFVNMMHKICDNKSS

Row | SMILES | IC50 [1] [nM] | EC50 [2, 10] [nM] | further results
1 | NC(=O)c1ccc(-c2cnc3ccc(NCCc4cccnc4)nn23)cc1 [Compound 1] | 59 |  | inhibition at 1 µM [2]: 99%
2 | NC(=O)c1ccc(-c2cnc3ccc(NCCc4ccccn4)nn23)cc1 [Compound 2] | 61 |  | inhibition at 1 µM [2]: 99%
3 | CC(=O)Nc1cccc(-c2cnc3ccc(NCCc4ccccn4)nn23)c1 [Compound 3] | 66 |  | inhibition at 1 µM [2]: 35%
4 | N#Cc1ccc(-c2cnc3ccc(NCCc4cccnc4)nn23)cc1 [Compound 4] | 71 |  | inhibition at 1 µM [2]: 98%
5 | Fc1cccc(-c2cnc3ccc(NCCc4cccnc4)nn23)c1 [Compound 5] | 80 |  | inhibition at 1 µM [2]: 6%
6 | CC(C)CCNC(=O)c1ccc(-c2cnc3ccc(NC4CCN(C)CC4)nn23)cc1 [Compound 10] | 23 | 780 | EC50 against the P. falciparum parasite [2]: sub-micromolar
7 | CC(C)CCNc1ccc(-c2cnc3ccc(NC4CCN(C)CC4)nn23)cn1 [Compound 17] |  | 400 | HLM (% rem) [3]: 85 % rem; Kinases hit in human kinase panel [4]: MKK1, RSK1, PKD1, CHK2, Aurora B, NUAK1, GCK, MLK1, Src, Lck, YES1, and VEGFR; MLM (% rem) [5]: 63 % rem; Clearance (in words) [6]: moderate to high clearance; Oral bioavailability in mouse (in words) [6]: good oral bioavailability; i.v. t1/2 [6]: 2 h; Oral %F ([6]; oral): 84%; EC50 ([2]; P. falciparum, read-out: Cell potency): < 500 nM; Reduction in parasitaemia in vivo [7]: 46%; logD [8]: 3.4
8 | CN1CCC(Nc2ccc3ncc(-c4ccc(NCC5CC5)nc4)n3n2)CC1 [Compound 19] | 36 | 450 | 
9 | COCCNc1ccc(-c2cnc3ccc(NC4CCN(C)CC4)nn23)cn1 [Compound 20] | 25 | 670 | 
10 | CC(C)CCNc1cc(-c2cnc3ccc(NC4CCN(C)CC4)nn23)ccn1 [Compound 21] | 88 |  | Loss in potency against the enzyme in comparison to 17 ([1]; PfCDPK1): sevenfold loss in potency
11 | CC(C)CCNc1ccc(-c2cnc3ccc(NC4CCN(C)C4)nn23)cn1 (stereo not shown) [Compound 24] | 23 | 170 | HLM (% rem) [3]: 63 % rem; Selectivity profile against panel of human kinases [4]: good selectivity profiles; Kinases hit in human kinase panel [4]: RSK1 and HER4; MLM (% rem) [5]: 74 % rem; Papp [9]: 11.4 ×10⁻⁶ cm/s; Reduction in parasitaemia in vivo [7]: 30%; logD [8]: 3.5
12 | CC(C)CCNc1ccc(-c2cnc3ccc(NC4CN(C)C4)nn23)cn1 [Compound 25] | 89 | 930 | 
13 | CC(C)CCNc1ccc(-c2cnc3ccc(N4CCN(C)CC4)nn23)cn1 [Compound 26] | 175 | 2400 | 
14 | CC(C)CCNc1ccc(-c2cnc3ccc(N4CCC(N(C)C)CC4)nn23)cn1 [Compound 27] | 44 | 570 | HLM (% rem) [3]: 80 % rem; MLM (% rem) [5]: 84 % rem; Papp [9]: 13.7 ×10⁻⁶ cm/s; Reduction in parasitaemia in vivo [7]: 7%; logD [8]: 3.2
15 | CC(C)CCOc1ccc(-c2cnc3ccc(N[C@H]4CC[C@H](N)CC4)nn23)cn1 [Compound 30] | 170 | 540 | 
16 | CC(C)CCNc1nccc(-c2cnc3ccc(NC4CCN(C)CC4)nn23)n1 [Compound 33] | 424 |  | 

Further compounds by falling IC50 [1], results first:

Row | IC50 [1] [nM] | EC50 [2, 10] [nM] | SMILES | further results
17 | 22 | 560 | CN1CCC(Nc2ccc3ncc(-c4cccc(NC(=O)C5CC5)c4)n3n2)CC1 [Compound 7] | 
18 | 18 | 750 | COC(=O)Nc1cccc(-c2cnc3ccc(NC4CCN(C)CC4)nn23)c1 [Compound 8] | 
19 | 16 | 460 | CC(C)CCNC(=O)c1ccc(-c2cnc3ccc(N[C@H]4CC[C@H](N)CC4)nn23)cc1 [Compound 9] | EC50 against the P. falciparum parasite [2]: sub-micromolar
20 | 16 | 170 | CC(C)CCNc1ncc(-c2cnc3ccc(N[C@H]4CC[C@H](N)CC4)nn23)cn1 [Compound 32] | 
21 | 15 | 240 | CC(C)CCNc1ccc(-c2cnc3ccc(NC4CCNCC4)nn23)cn1 [Compound 29] | 
22 | 14 | 430 | CCCCNc1ccc(-c2cnc3ccc(NC4CCN(C)CC4)nn23)cn1 [Compound 18] | 
23 | 14 | 470 | CC(C)CCNc1ncc(-c2cnc3ccc(NC4CCN(C)CC4)nn23)cn1 [Compound 31] | 
24 | 13 | 140 | CC(C)CCNc1ccc(-c2cnc3ccc(N4CCC(N)CC4)nn23)cn1 [Compound 28] | HLM (% rem) [3]: 90 % rem; Selectivity profile against panel of human kinases [4]: good selectivity profiles; Kinases hit in human kinase panel [4]: RSK1, CAMK1, PHK, NUAK1, and HER4; MLM (% rem) [5]: 90 % rem; Papp [9]: 5.5 ×10⁻⁶ cm/s; Reduction in parasitaemia in vivo [7]: 11%; logD [8]: 2.5
25 | 11 | 320 | CC(=O)Nc1cccc(-c2cnc3ccc(N[C@H]4CC[C@H](N)CC4)nn23)c1 [Compound 6] | 

— PMC3898741, “Substituted imidazopyridazines are potent and selective inhibitors of Plasmodium falciparum calcium-dependent protein kinase 1 (PfCDPK1)” (Bioorganic & Medicinal Chemistry Letters, 2013)
